Measured values taken from the supplement of paper PMC10307832.

How the values were obtained:
Experiment in all cases: relative viability (nuclei count vs DMSO), 5 days (fraction); higher = more cells survive
[1] = compound: CC1=C(N=C(N=C1N)[C@H](CC(=O)N)NC[C@@H](C(=O)N)N)C(=O)N[C@@H]([C@H](C2=CN=CN2)OC3C(C(C(C(O3)CO)O)O)OC4C(C(C(C(O4)CO)O)OC(=O)N)O)C(=O)N[C@H](C)[C@H]([C@H](C)C(=O)N[C@@H]([C@@H](C)O)C(=O)NCCC5=NC(=CS5)C6=NC(=CS6)C(=O)NCCC[S+](C)C)O [Bleomycin] + CCNC(=O)c1noc(-c2cc(C(C)C)c(O)cc2O)c1-c1ccc(CN2CCOCC2)cc1 [Luminespib] (partner 0.01 µM); conditions: main component drawn
Outline: (§1)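 Lung cancer cell lines in 1536-well plates got either a single drug or a fixed anchor-drug dose together with five library-drug doses (not always all listed) in √10 steps, by pin tool, on the day after seeding. Nuclei were counted after 5 days, and relative viability is the treated-to-vehicle ratio of nuclei counts. Values are medians of duplicate plates.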

[2] = compound: CC1=C(N=C(N=C1N)[C@H](CC(=O)N)NC[C@@H](C(=O)N)N)C(=O)N[C@@H]([C@H](C2=CN=CN2)OC3C(C(C(C(O3)CO)O)O)OC4C(C(C(C(O4)CO)O)OC(=O)N)O)C(=O)N[C@H](C)[C@H]([C@H](C)C(=O)N[C@@H]([C@@H](C)O)C(=O)NCCC5=NC(=CS5)C6=NC(=CS6)C(=O)NCCC[S+](C)C)O [Bleomycin] + O=C(c1cc(Cc2n[nH]c(=O)c3ccccc23)ccc1F)N1CCN(C(=O)C2CC2)CC1 [Olaparib] (partner 8 µM); conditions: main component drawn
Outline: as §1

[3] = compound: COc1cc([C@@H]2c3cc4c(cc3[C@@H](O[C@@H]3O[C@@H]5CO[C@@H](C)O[C@H]5[C@H](O)[C@H]3O)[C@H]3COC(=O)[C@H]23)OCO4)cc(OC)c1O [Etoposide] + NC(=O)Nc1cc(-c2cccc(F)c2)sc1C(=O)N[C@H]1CCCNC1 [AZD7762] (partner 0.2 µM)
Outline: as §1

[4] = compound: COc1cc([C@@H]2c3cc4c(cc3[C@@H](O[C@@H]3O[C@@H]5CO[C@@H](C)O[C@H]5[C@H](O)[C@H]3O)[C@H]3COC(=O)[C@H]23)OCO4)cc(OC)c1O [Etoposide] + CS(=O)(=O)N1CCN(Cc2cc3nc(-c4cccc5[nH]ncc45)nc(N4CCOCC4)c3s2)CC1 [Pictilisib] (partner 1 µM)
Outline: as §1

Row | Cell Line | relative viability ([1]; first compound 0.01 µM) | relative viability ([1]; first compound 0.03162 µM) | relative viability ([1]; first compound 0.1 µM) | relative viability ([1]; first compound 0.3162 µM) | relative viability ([1]; first compound 1 µM) | relative viability ([2]; first compound 0.01 µM) | relative viability ([2]; first compound 0.03162 µM) | relative viability ([2]; first compound 0.1 µM) | relative viability ([2]; first compound 0.3162 µM) | relative viability ([2]; first compound 1 µM) | relative viability ([3]; first compound 0.01 µM) | relative viability ([3]; first compound 0.03162 µM) | relative viability ([3]; first compound 0.1 µM) | relative viability ([3]; first compound 0.3162 µM) | relative viability ([3]; first compound 1 µM) | relative viability ([4]; first compound 0.01 µM) | relative viability ([4]; first compound 0.03162 µM) | relative viability ([4]; first compound 0.1 µM) | relative viability ([4]; first compound 0.3162 µM) | relative viability ([4]; first compound 1 µM)
1 | HOP-62 | 0.66 | 0.705 | 0.462 | 0.254 | 0.193 | 0.175 | 0.137 | 0.0997 | 0.0722 | 0.0872 | 0.486 | 0.634 | 0.284 | 0.329 | 0.24 | 0.796 | 1.01 | 0.321 | 0.448 | 0.149
2 | HARA | 0.682 | 0.751 | 0.705 | 0.442 | 0.543 | 0.733 | 0.942 | 0.701 | 0.247 | 0.351 | 0.436 | 0.347 | 0.236 | 0.301 | 0.291 | 0.3 | 0.545 | 0.255 | 0.449 | 0.086
3 | PC-14 | 0.148 | 0.144 | 0.121 | 0.116 | 0.124 | 0.114 | 0.147 | 0.0932 | 0.0421 | 0.0404 | 0.338 | 0.396 | 0.317 | 0.307 | 0.17 | 0.598 | 0.638 | 0.543 | 0.371 | 0.289
4 | NCI-H1755 | 0.582 | 0.695 | 0.22 | 0.33 | 0.244 | 0.782 | 0.79 | 0.833 | 0.639 | 0.599 | 0.45 | 0.487 | 0.407 | 0.403 | 0.52 | 0.434 | 0.473 | 0.316 | 0.426 | 0.269
5 | NCI-H441 | 0.31 | 0.331 | 0.251 | 0.223 | 0.216 | 0.539 | 0.505 | 0.399 | 0.338 | 0.226 | 1.31 | 0.966 | 1.1 | 0.512 | 0.4 | 0.38 | 0.425 | 0.267 | 0.149 | 0.147
6 | NCI-H322M | 0.781 | 0.783 | 0.709 | 0.442 | 0.42 | 0.612 | 0.823 | 0.675 | 0.545 | 0.447 | 0.473 | 0.562 | 0.47 | 0.502 | 0.473 | 0.504 | 0.566 | 0.397 | 0.493 | 0.384
7 | NCI-H2087 |  | 0.162 | 0.188 | 0.124 | 0.142 | 0.366 | 0.46 | 0.442 | 0.182 | 0.145 | 1.46 | 1.3 | 1.3 | 1.08 | 0.78 |  | 1.09 | 0.551 | 0.543 | 0.235
8 | NCI-H2126 | 0.954 | 0.934 | 0.872 | 0.566 | 0.551 | 0.863 | 0.933 | 0.932 | 0.739 | 0.67 | 0.93 | 1.08 | 0.681 | 0.948 | 0.919 | 0.536 | 0.55 | 0.419 | 0.392 | 0.332
9 | LC-2-ad | 0.68 | 0.572 | 0.563 | 0.29 | 0.262 | 0.574 | 0.431 | 0.287 | 0.235 | 0.219 | 0.762 | 0.882 | 0.853 | 0.741 | 0.571 | 0.448 | 0.595 | 0.318 | 0.237 | 0.16
10 | NCI-H1915 | 0.533 | 0.568 | 0.398 | 0.235 | 0.145 | 0.2 | 0.226 | 0.166 | 0.137 | 0.11 | 0.66 | 0.777 | 0.697 | 0.648 | 0.527 | 0.934 | 1.14 | 0.634 | 0.782 | 0.481
11 | NCI-H1793 | 0.169 | 0.157 | 0.286 | 0.175 | 0.153 | 0.845 | 0.675 | 0.589 | 0.191 | 0.195 |  | 0.548 | 0.282 | 0.474 | 0.196 | 0.321 | 0.433 |  | 0.313 | 0.243
12 | LXF-289 | 0.568 | 0.472 | 0.49 | 0.133 | 0.093 | 0.887 | 0.831 | 0.864 | 0.168 | 0.127 | 1.07 | 1.1 | 1.23 | 0.892 | 0.4 | 0.807 | 0.849 | 0.655 | 0.556 | 0.152
13 | PC-3 [JPC-3] | 0.685 | 0.665 | 0.621 | 0.55 | 0.418 | 0.932 | 1.13 | 0.825 | 0.481 | 0.486 | 0.782 | 0.92 | 0.604 | 0.785 | 0.73 | 0.689 | 0.819 | 0.576 | 0.785 | 0.497
14 | NCI-H1666 | 0.733 | 0.657 | 0.583 | 0.395 | 0.436 | 0.65 | 0.692 | 0.644 | 0.54 | 0.599 | 0.852 | 0.99 | 0.814 | 0.583 | 0.532 | 0.469 | 0.233 | 0.325 | 0.21 | 0.205
15 | NCI-H2085 | 0.408 | 0.436 | 0.369 | 0.314 | 0.279 | 0.665 | 0.716 | 0.47 | 0.376 | 0.383 | 0.831 | 0.905 | 0.803 | 0.911 | 0.453 | 0.513 | 0.491 | 0.324 | 0.433 | 0.287
16 | NCI-H1734 | 0.167 | 0.187 | 0.198 | 0.13 | 0.147 | 0.505 | 0.451 | 0.377 | 0.222 | 0.148 | 0.561 | 0.538 | 0.333 | 0.306 | 0.19 | 0.468 | 0.47 | 0.266 | 0.341 | 0.272
17 | EMC-BAC-2 | 0.997 | 0.832 | 0.8 | 0.348 | 0.244 | 0.35 | 0.428 | 0.404 | 0.324 | 0.221 | 1.06 | 1.11 | 0.688 | 0.639 | 0.334 | 0.511 | 0.515 | 0.413 | 0.27 | 0.164
18 | NCI-H1993 | 0.738 | 0.497 | 0.716 | 0.57 | 0.41 | 0.763 | 0.728 | 0.645 | 0.353 | 0.43 |  | 0.838 | 0.474 | 0.759 | 0.596 | 0.804 | 0.802 | 0.806 | 0.915 | 0.66
19 | NCI-H596 | 0.755 | 0.617 | 0.552 | 0.335 | 0.377 | 0.599 | 0.515 | 0.515 | 0.371 | 0.438 | 0.923 | 1.21 | 0.662 | 1.3 | 0.705 | 0.398 | 0.427 |  | 0.375 | 0.36
20 | NCI-H650 | 0.541 | 0.729 | 0.694 | 0.2 | 0.15 | 0.333 | 0.463 | 0.336 | 0.264 | 0.175 | 0.859 | 0.977 | 0.563 | 0.538 | 0.207 | 0.865 | 0.843 | 0.415 | 0.362 | 0.221
21 | NCI-H1792 | 0.393 | 0.424 | 0.553 | 0.239 | 0.251 | 0.34 | 0.447 | 0.487 | 0.183 | 0.11 | 0.485 | 0.661 |  | 0.471 | 0.122 | 0.261 | 0.261 | 0.129 | 0.216 | 0.147
22 | ChaGo-K-1 | 0.505 | 0.476 | 0.502 | 0.293 | 0.205 | 0.361 | 0.411 | 0.348 | 0.28 | 0.229 | 0.859 | 0.863 | 0.863 | 0.69 | 0.302 | 0.815 | 0.616 | 0.387 | 0.265 | 0.199
23 | LOU-NH91 | 0.307 | 0.315 | 0.307 | 0.282 | 0.298 | 0.604 | 0.521 | 0.432 | 0.342 | 0.28 | 0.784 | 0.836 | 0.67 | 0.656 | 0.482 | 0.55 | 0.566 | 0.474 | 0.473 | 0.399
24 | NCI-H3122 | 0.103 | 0.145 | 0.101 | 0.111 | 0.0599 | 0.593 | 0.599 | 0.506 | 0.364 | 0.279 | 0.998 | 0.998 | 0.834 | 0.607 | 0.181 | 0.687 | 0.74 | 0.387 | 0.576 | 0.349
25 | LCLC-97TM1 | 0.519 | 0.635 | 0.51 | 0.269 | 0.187 | 0.211 | 0.258 | 0.148 | 0.0871 | 0.0615 | 0.226 | 0.323 | 0.173 | 0.15 | 0.099 |  | 0.172 | 0.115 | 0.116 | 0.109
26 | NCI-H647 | 0.111 | 0.169 | 0.104 | 0.0882 | 0.0947 | 0.161 | 0.148 | 0.195 | 0.0429 | 0.0447 | 0.417 | 0.323 | 0.307 | 0.165 | 0.0849 | 0.418 | 0.394 | 0.257 | 0.208 | 0.0798
27 | NCI-H838 | 0.269 | 0.176 | 0.142 | 0.119 | 0.162 | 0.432 | 0.269 | 0.199 | 0.138 | 0.148 | 0.884 | 0.857 | 0.805 | 0.787 | 0.722 | 0.461 | 0.544 | 0.284 | 0.329 | 0.186
